Source: patent US8362000B2, “Azetidinyl diamides as monoacylglycerol lipase inhibitors” (Janssen Pharmaceutica NV, priority 2009, dated 2013)
Substitutions are numbered along the chain they refer to. Read-outs that look alike come from different tables or passages of the source.

How the values were obtained:
[1] = system: CFA-induced paw radiant heat hypersensitivity; experiment: CFA-induced paw radiant heat hypersensitivity; format: in vivo, rat; conditions: Rattus norvegicus, po, HPβCD; for inhibition in vivo at 30 mg/kg: 30 mg/kg p.o., last time point 180 or 300 min; for inhibition in vivo at 10 mg/kg: 5 h, 10 mg/kg p.o., last time point 300 min
Protocol: Each rat was placed in a test chamber on a warm glass surface and allowed to acclimate for approximately 10 min. A radiant thermal stimulus (beam of light) was then focused through the glass onto the plantar surface of each hind paw in turn. The thermal stimulus was automatically shut off by a photoelectric relay when the paw was moved or when the cut-off time was reached (20 sec for radiant heat at ˜5 amps). An initial (baseline) response latency to the thermal stimulus was recorded for each animal prior to the injection of complete Freund's adjuvant (CFA). […] Immediately following the post-CFA latency assessment, the indicated test compound or vehicle was administered orally.
The percent reversal (% R) of hypersensitivity was calculated in one of two different ways: 1) using group mean values or 2) using individual animal values. More specifically:
Method 2. For some compounds, the % R of hypersensitivity was calculated separately for each animal according to the following formula: % reversal=[(individual treatment response−individual CFA response)/(individual baseline response−individual CFA response)]×100. Results are given as a mean of the maximum % reversal values calculated for each individual animal.

[2] = biological target: T1, MGL (Rattus norvegicus, UniProt Q8R431); experiment: 2-AG accumulation assay in rat brain homogenate; format: biochemical; conditions: rat brain homogenate; compound 1 μM; 2-AG accumulation as percent of vehicle; read-out: Rat Brain 2AG % VehCntrl (%) @ 1 μM
T1 construct: one g rat brain was homogenized using a Polytron homogenizer; from tissue; host or cells: rat brain homogenate
T1 sequence (Q8R431 1-303): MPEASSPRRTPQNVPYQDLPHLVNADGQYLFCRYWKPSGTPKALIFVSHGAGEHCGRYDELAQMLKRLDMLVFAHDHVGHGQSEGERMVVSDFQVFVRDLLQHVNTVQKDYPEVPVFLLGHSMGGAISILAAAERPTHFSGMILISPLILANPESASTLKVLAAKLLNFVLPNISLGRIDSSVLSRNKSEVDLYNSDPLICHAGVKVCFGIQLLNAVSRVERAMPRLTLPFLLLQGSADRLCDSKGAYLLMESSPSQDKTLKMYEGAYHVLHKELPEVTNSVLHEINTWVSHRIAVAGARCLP

[3] = biological target: T2, mutant MGL (Homo sapiens, UniProt Q99685, L169S/L176S); experiment: MGL ThermoFluor assay - mutant; format: binding
T2 sequence (Q99685 1-303 L169S/L176S): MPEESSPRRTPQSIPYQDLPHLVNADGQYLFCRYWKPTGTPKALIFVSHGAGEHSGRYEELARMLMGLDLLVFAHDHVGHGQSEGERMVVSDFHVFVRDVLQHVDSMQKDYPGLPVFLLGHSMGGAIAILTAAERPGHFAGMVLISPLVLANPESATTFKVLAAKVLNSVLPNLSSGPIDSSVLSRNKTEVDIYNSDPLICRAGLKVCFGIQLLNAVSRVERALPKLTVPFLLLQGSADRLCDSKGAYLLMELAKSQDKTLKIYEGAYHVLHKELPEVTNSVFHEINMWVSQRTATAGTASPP

[4] = biological target: T3, purified wild type MGL (wt-MGLL 6H-11-313) (Homo sapiens, UniProt Q99685)
T3 sequence (Q99685 1-303): T2 sequence (Q99685 1-303 L169S/L176S) with S169L, S176L

[5] = group mean values, read-out: CFA thermal hypersensitivity Method 1: peak % reversal
[6] = ThermoFluor concentration-response, read-out: MGL mutant ThermoFluor Kd
[7] = individual animal values, read-out: CFA thermal hypersensitivity Method 2: peak % reversal
[8] = ThermoFluor thermal stability binding assay, read-out: MGL mutant ThermoFluor Kd

For `O=C(c1ccc2c(cnn2-c2ccc(F)c(F)c2)c1)N1CC(N2CCN(C(=O)c3nccs3)CC2)C1` [Cpd 1106, 1-(3,4-Difluorophenyl)-5-({3-[4-(1,3-thiazol-2-ylcarbonyl)piperazin-1-yl]azetidin-1-yl}carbonyl)-1H-indazole], which inhibition in vivo at 30 mg/kg [1, 5] is on record?
Its inhibition in vivo at 30 mg/kg is 45%.

And the 2-AG accumulation, % of vehicle control at 1 µM [2]?
The 2-AG accumulation, % of vehicle control at 1 µM was 784%.

What does the source list for `O=C(c1ccc2oc(-c3ccccc3)nc2c1)N1CC(N2CCN(C(=O)c3nccs3)CC2)C1` [Cpd 317, 2-Phenyl-5-({3-[4-(1,3-thiazol-2-ylcarbonyl)piperazin-1-yl]azetidin-1-yl}carbonyl)-1,3-benzoxazole]?
inhibition in vivo at 30 mg/kg [1, 5]: 43%; 2-AG accumulation, % of vehicle control at 1 µM [2]: 417%

Which Kd [3, 6] does the source give for `O=C(c1ccc2c(ccn2-c2ccc(F)cc2)c1)N1CC(N2CCN(C(=O)c3cscn3)CC2)C1` [Cpd 1358, 1-(4-Fluorophenyl)-5-({3-[4-(1,3-thiazol-4-ylcarbonyl)piperazin-1-yl]azetidin-1-yl}carbonyl)-1H-indole] here?
The Kd was 0.007 µM.

And the inhibition in vivo at 30 mg/kg [1, 5]?
The inhibition in vivo at 30 mg/kg was 25.4%.

What about the IC50 [4] of the same compound?
Its IC50 is < 5 nM.

Which inhibition in vivo at 30 mg/kg [1, 5] does the source give for `Cc1c(C(=O)N2CC(N3CCN(C(=O)c4nccs4)CC3)C2)sc2cc(C(F)(F)F)ccc12` [Cpd 899, 1-(1-{[3-Methyl-6-(trifluoromethyl)-1-benzothiophen-2-yl]carbonyl}azetidin-3-yl)-4-(1,3-thiazol-2-ylcarbonyl)piperazine] here?
The inhibition in vivo at 30 mg/kg was 80.1%.

And the IC50 [4]?
The IC50 was < 5 nM.

`O=C(c1ccccc1)N1CCN(C2CN(C(=O)c3ccc4c(ccn4-c4ccc(C(F)(F)F)cc4)c3)C2)CC1` [Cpd 126, 5-({3-[4-(Phenylcarbonyl)piperazin-1-yl]azetidin-1-yl}carbonyl)-1-[4-(trifluoromethyl)phenyl]-1H-indole] was tested. Which inhibition in vivo at 10 mg/kg [1, 5] did it give?
Its inhibition in vivo at 10 mg/kg is 40.8%.

What about the inhibition in vivo at 10 mg/kg [1, 7] of the same compound?
The inhibition in vivo at 10 mg/kg was 40.4%.

What about the inhibition in vivo at 30 mg/kg [1, 5] of the same compound?
Its inhibition in vivo at 30 mg/kg is 51%.

And the inhibition in vivo at 30 mg/kg [1, 7]?
Its inhibition in vivo at 30 mg/kg is 79.5%.

`Cn1cc(-c2ccccc2)c2ccc(C(=O)N3CC(N4CCN(C(=O)c5nccs5)CC4)C3)cc21` [Cpd 1132, 1-Methyl-3-phenyl-6-({3-[4-(1,3-thiazol-2-ylcarbonyl)piperazin-1-yl]azetidin-1-yl}carbonyl)-1H-indole] was tested. Which Kd [3, 6] did it give?
Its Kd is 0.002 µM.

What about the inhibition in vivo at 30 mg/kg [1, 5] of the same compound?
The inhibition in vivo at 30 mg/kg was 0%.

And the IC50 [4]?
The IC50 was 23 nM.

How did the inhibition in vivo at 30 mg/kg [1, 5] turn out when `O=C(c1ccc2nc(-c3ccccc3)oc2c1)N1CC(N2CCN(C(=O)c3cscn3)CC2)C1` [Cpd 1141, 2-Phenyl-6-({3-[4-(1,3-thiazol-4-ylcarbonyl)piperazin-1-yl]azetidin-1-yl}carbonyl)-1,3-benzoxazole] was run?
The inhibition in vivo at 30 mg/kg was 5.7%.

Which Kd [3, 8] does the source give for `O=C(c1nccs1)N1CCN(C2CN(C(=O)c3sc4cc(Br)ccc4c3Cl)C2)CC1` [Cpd 326, 1-{1-[(6-Bromo-3-chloro-1-benzothiophen-2-yl)carbonyl]azetidin-3-3yl}-4-(1,3-thiazol-2-ylcarbonyl)piperazine] here?
Its Kd is 0.0004 µM.

What about the inhibition in vivo at 30 mg/kg [1, 5] of the same compound?
Its inhibition in vivo at 30 mg/kg is 17.3%.

What about the inhibition in vivo at 30 mg/kg [1, 7] of the same compound?
Its inhibition in vivo at 30 mg/kg is 17.5%.

What about the IC50 [4] of the same compound?
The IC50 was < 5 nM.

Which inhibition in vivo at 30 mg/kg [1, 5] does the source give for `O=C(c1nccs1)N1CCN(C2CN(C(=O)c3sc4cc(C(F)(F)F)ccc4c3F)C2)CC1` [Cpd 895, 1-(1-{[3-Fluoro-6-(trifluoromethyl)-1-benzothiophen-2-yl]carbonyl}azetidin-3-yl)-4-(1,3-thiazol-2-ylcarbonyl)piperazine] here?
Its inhibition in vivo at 30 mg/kg is 23.4%.

And the IC50 [4]?
Its IC50 is < 5 nM.

For `O=C(c1ccc2c(ccn2-c2ccc(F)cc2)c1)N1CC(N2CCN(C(=O)c3nccs3)CC2)C1` [Cpd 487, 1-(4-Fluorophenyl)-5-({3-[4-(1,3-thiazol-2-ylcarbonyl)piperazin-1-yl]azetidin-1-yl}carbonyl)-1H-indole], which inhibition in vivo at 30 mg/kg [1, 5] is on record?
Its inhibition in vivo at 30 mg/kg is 109%.

What about the inhibition in vivo at 30 mg/kg [1, 7] of the same compound?
The inhibition in vivo at 30 mg/kg was 166%.

Which Kd [3, 6] does the source give for `O=C(c1ccc2c(ccn2-c2ccc(C(F)(F)F)cc2)c1)N1CC(N2CCN(C(=O)c3cscn3)CC2)C1` [Cpd 1359, 5-({3-[4-(1,3-Thiazol-4-ylcarbonyl)piperazin-1-yl]azetidin-1-yl}carbonyl)-1-[4-(trifluoromethyl)phenyl]-1H-indole] here?
Its Kd is 0.008 µM.

And the inhibition in vivo at 30 mg/kg [1, 5]?
Its inhibition in vivo at 30 mg/kg is 5.1%.

And the inhibition in vivo at 30 mg/kg [1, 7]?
Its inhibition in vivo at 30 mg/kg is 12.7%.

What about the IC50 [4] of the same compound?
Its IC50 is < 5 nM.

How did the inhibition in vivo at 30 mg/kg [1, 5] turn out when `O=C(c1ccccc1)N1CCN(C2CN(C(=O)c3ccc4c(ccn4-c4ccc(F)cc4)c3)C2)CC1` [Cpd 567, 1-(4-Fluorophenyl)-5-({3-[4-(phenylcarbonyl)piperazin-1-yl]azetidin-1-yl}carbonyl)-1H-indole] was run?
Its inhibition in vivo at 30 mg/kg is 63.1%.

How did the inhibition in vivo at 30 mg/kg [1, 5] turn out when `O=C(c1ccc2nc(-c3ccccc3)oc2c1)N1CC(N2CCN(C(=O)c3nccs3)CC2)C1` [Cpd 318, 2-Phenyl-6-({3-[4-(1,3-thiazol-2-ylcarbonyl)piperazin-1-yl]azetidin-1-yl}carbonyl)-1,3-benzoxazole] was run?
Its inhibition in vivo at 30 mg/kg is 44.7%.

How did the Kd [3, 6] turn out when `O=C(c1ccc2nc(-c3ccccc3)sc2c1)N1CC(N2CCN(C(=O)c3nccs3)CC2)C1` [Cpd 1125, 2-Phenyl-6-({3-[4-(1,3-thiazol-2-ylcarbonyl)piperazin-1-yl]azetidin-1-yl}carbonyl)-1,3-benzothiazole] was run?
The Kd was 0.037 µM.

And the inhibition in vivo at 30 mg/kg [1, 5]?
The inhibition in vivo at 30 mg/kg was 64.5%.

What about the inhibition in vivo at 30 mg/kg [1, 7] of the same compound?
Its inhibition in vivo at 30 mg/kg is 90.3%.

What about the IC50 [4] of the same compound?
The IC50 was 19 nM.

`O=C(c1ccc2c(-c3cccc(C(F)(F)F)c3)c[nH]c2c1)N1CC(N2CCN(C(=O)c3nccs3)CC2)C1` [Cpd 1341, 6-({3-[4-(1,3-Thiazol-2-ylcarbonyl)piperazin-1-yl]azetidin-1-yl}carbonyl)-3-[3-(trifluoromethyl)phenyl]-1H-indole] was tested. Which Kd [3, 6] did it give?
Its Kd is 0.001 µM.

And the inhibition in vivo at 30 mg/kg [1, 5]?
The inhibition in vivo at 30 mg/kg was 7.5%.

And the IC50 [4]?
The IC50 was < 5 nM.

Which results are given for `Cc1cn(-c2ccc(F)cc2)c2ccc(C(=O)N3CC(N4CCN(C(=O)c5nccs5)CC4)C3)cc12` [Cpd 1088, 1-(4-Fluorophenyl)-3-methyl-5-({3-[4-(1,3-thiazol-2-ylcarbonyl)piperazin-1-yl]azetidin-1-yl}carbonyl)-1H-indole]?
Kd [3, 8]: 0.001 µM; inhibition in vivo at 30 mg/kg [1, 5]: 35.3%; 2-AG accumulation, % of vehicle control at 1 µM [2]: 760%

Which inhibition in vivo at 30 mg/kg [1, 5] does the source give for `O=C(c1cscn1)N1CCN(C2CN(C(=O)c3sc4cc(C(F)(F)F)ccc4c3Cl)C2)CC1` [Cpd 335, 1-(1-{[3-Chloro-6-(trifluoromethyl)-1-benzothiophen-2-yl]carbonyl}azetidin-3-yl)-4-(1,3-thiazol-4-ylcarbonyl)piperazine] here?
The inhibition in vivo at 30 mg/kg was 108%.

And the inhibition in vivo at 30 mg/kg [1, 7]?
The inhibition in vivo at 30 mg/kg was 135%.

What does the source list for `Cc1cn(-c2ccccc2)c2ccc(C(=O)N3CC(N4CCN(C(=O)c5nccs5)CC4)C3)cc12` [Cpd 1054]?
Kd [3, 8]: 0.001 µM; Kd ([3]; ThermoFluor, compound concentration measured by qNMR, read-out: MGL mutant ThermoFluor qKd (μM) (using qNMR conc.)): 0.001 µM; inhibition in vivo at 30 mg/kg [1, 5]: 27.6%; IC50 [4]: 5 nM

For `O=C(c1ccc2c(ccn2-c2ncccn2)c1)N1CC(N2CCN(C(=O)c3nccs3)CC2)C1` [Cpd 1174, 1-Pyrimidin-2-yl-5-({3-[4-(1,3-thiazol-2-ylcarbonyl)piperazin-1-yl]azetidin-1-yl}carbonyl)-1H-indole], which Kd [3, 6] is on record?
The Kd was 0.015 µM.

And the inhibition in vivo at 30 mg/kg [1, 5]?
The inhibition in vivo at 30 mg/kg was 13.6%.

What about the IC50 [4] of the same compound?
Its IC50 is 66 nM.

`O=C(c1ccc2c(ccn2-c2ccc(C(F)(F)F)cc2)c1)N1CC(N2CCN(C(=O)c3nccs3)CC2)C1` [Cpd 1357, 5-({3-[4-(1,3-Thiazol-2-ylcarbonyl)piperazin-1-yl]azetidin-1-yl}carbonyl)-1-[4-(trifluoromethyl)phenyl]-1H-indole] was tested. Which Kd [3, 6] did it give?
The Kd was 0.002 µM.

What about the inhibition in vivo at 30 mg/kg [1, 5] of the same compound?
The inhibition in vivo at 30 mg/kg was 51%.

And the inhibition in vivo at 30 mg/kg [1, 7]?
The inhibition in vivo at 30 mg/kg was 46.1%.

What about the IC50 [4] of the same compound?
The IC50 was < 5 nM.
